Assay results from patent US20240425518A1, “N-MACROCYCLIC AMIDE COMPOUNDS, PREPARATION METHODS THEREOF AND APPLICATIONS THEREOF AS MEDICAMENTS” (Chengdu FANXI Biopharma Co., Ltd., priority 2023, published 2024).
Where a chain is given by its changes, count along the chain named.

Key:
[1] = from C=CCOCc1cc(NC(=O)OC(C)(C)C)cc(Nc2nccc(-c3cccc(COCC=C)c3)n2)c1; rcm bond; Zhan Catalyst 1B; dichloromethane; 6.66 mM; 50.0 °C; 3.0 h
Ab1 (h) = target: T1, Ab1 (h) (Homo sapiens, UniProt P00519); assay: Radioisotope labeling kinase assay (Eurofins), Ab1; type: biochemical; conditions: 1 μM compound; read-out: Inhibitory activity per unit concentration/Activity % Ab1 (h)
T1 construct: purchased Eurofins
T1 sequence (P00519 whole entry): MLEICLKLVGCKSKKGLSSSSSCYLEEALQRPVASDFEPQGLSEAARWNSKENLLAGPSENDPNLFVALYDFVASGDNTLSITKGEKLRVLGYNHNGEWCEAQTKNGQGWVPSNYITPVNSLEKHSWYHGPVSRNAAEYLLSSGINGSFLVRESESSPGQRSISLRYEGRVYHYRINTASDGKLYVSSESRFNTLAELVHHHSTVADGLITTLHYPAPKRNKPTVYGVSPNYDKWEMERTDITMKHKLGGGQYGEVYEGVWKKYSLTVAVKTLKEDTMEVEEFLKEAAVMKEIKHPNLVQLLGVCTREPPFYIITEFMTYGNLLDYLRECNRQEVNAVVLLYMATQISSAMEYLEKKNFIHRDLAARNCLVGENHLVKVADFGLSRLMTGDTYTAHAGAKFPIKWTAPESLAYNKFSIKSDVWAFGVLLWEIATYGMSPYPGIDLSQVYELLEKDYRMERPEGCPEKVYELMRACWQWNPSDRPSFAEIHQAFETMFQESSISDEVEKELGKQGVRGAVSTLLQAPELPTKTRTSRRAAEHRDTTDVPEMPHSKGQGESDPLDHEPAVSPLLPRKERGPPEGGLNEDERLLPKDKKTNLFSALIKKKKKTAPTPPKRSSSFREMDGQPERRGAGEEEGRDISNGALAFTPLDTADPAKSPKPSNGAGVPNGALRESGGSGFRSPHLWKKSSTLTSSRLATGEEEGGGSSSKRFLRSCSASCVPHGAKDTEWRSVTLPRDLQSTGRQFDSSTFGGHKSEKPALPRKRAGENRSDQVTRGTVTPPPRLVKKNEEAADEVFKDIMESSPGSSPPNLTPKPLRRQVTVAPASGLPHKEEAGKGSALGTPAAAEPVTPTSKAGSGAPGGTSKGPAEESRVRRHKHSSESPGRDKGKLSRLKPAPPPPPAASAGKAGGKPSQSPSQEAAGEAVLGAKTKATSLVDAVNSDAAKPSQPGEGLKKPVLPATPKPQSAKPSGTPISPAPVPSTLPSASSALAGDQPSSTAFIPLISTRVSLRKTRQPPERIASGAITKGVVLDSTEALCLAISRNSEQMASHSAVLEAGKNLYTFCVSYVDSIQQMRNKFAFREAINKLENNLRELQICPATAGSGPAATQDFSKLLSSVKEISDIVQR
Protocol: (§1) An activity to a human recombinant protein kinase of a series of compounds was determined by a radioisotope labeling method, which was provided by Eurofins Company. A compound to be detected was mixed with a corresponding protein kinase buffer (20 mM propyl sulfonate (MOPS, […].), 1 mM EDTA, 0.10 β-mercaptoethanol, 0.010 Brij-35, […], and 1 mg/mL BSA), the mixture was added into a reaction system (100 μM reaction substrate […], 8 mM MOPS with a pH value of 7.0, 10 mM MgAcetate, 0.2 mM EDTA, and a certain concentration of γ-^33P-ATP). After adding an MgATP composite solution, the reaction was started at room temperature for 40 minutes, and the reaction was terminated by adding 5 μl of […] solution. Then, 10 μl of reaction solution was dropwise added onto a filter and washed with 75 mM phosphoric acid solution for three times, 5 minutes each time, then washed with methanol once again, and dried and subjected to scintillation counting.

JAK3 (h) = target: T2, JAK3 (h) (Homo sapiens, UniProt P52333); assay: Radioisotope labeling kinase assay (Eurofins), JAK3; type: biochemical; conditions: 1 μM compound; read-out: Inhibitory activity per unit concentration/Activity % JAK3 (h)
T2 construct: purchased Eurofins
T2 sequence (P52333 1-1124): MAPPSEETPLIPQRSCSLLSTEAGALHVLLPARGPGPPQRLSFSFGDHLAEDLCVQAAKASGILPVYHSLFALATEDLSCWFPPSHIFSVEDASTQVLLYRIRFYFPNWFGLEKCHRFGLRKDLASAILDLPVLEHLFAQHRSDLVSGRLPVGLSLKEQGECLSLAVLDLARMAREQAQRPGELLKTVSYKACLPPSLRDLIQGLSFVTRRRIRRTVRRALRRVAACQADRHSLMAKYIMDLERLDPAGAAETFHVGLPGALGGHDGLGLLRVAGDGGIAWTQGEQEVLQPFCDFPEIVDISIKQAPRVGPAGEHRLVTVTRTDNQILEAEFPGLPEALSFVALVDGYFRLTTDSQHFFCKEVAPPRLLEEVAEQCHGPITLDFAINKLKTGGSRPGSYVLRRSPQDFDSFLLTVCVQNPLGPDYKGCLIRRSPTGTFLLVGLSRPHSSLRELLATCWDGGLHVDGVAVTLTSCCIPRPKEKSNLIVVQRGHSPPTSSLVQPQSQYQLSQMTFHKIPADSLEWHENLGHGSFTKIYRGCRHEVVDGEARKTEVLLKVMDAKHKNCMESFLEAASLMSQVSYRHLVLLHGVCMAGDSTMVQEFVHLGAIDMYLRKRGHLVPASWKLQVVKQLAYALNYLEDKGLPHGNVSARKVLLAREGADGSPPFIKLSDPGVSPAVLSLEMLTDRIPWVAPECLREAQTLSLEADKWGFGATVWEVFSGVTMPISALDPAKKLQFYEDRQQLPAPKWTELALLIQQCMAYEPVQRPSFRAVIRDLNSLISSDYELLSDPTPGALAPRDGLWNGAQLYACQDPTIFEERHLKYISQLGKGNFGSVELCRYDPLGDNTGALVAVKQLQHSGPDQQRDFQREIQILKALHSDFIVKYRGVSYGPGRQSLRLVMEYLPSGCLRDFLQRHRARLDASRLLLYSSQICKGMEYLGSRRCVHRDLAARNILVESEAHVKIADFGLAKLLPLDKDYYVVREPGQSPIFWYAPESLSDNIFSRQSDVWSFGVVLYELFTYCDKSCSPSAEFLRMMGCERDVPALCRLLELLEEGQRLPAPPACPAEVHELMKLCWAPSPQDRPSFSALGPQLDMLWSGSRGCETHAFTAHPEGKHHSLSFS
Protocol: as §1

Flt3 (h) = target: T3, Flt3 (h) (Homo sapiens, UniProt P36888); assay: Radioisotope labeling kinase assay (Eurofins), Flt3; type: biochemical; conditions: 1 μM compound; read-out: Inhibitory activity per unit concentration/Activity % Flt3 (h)
T3 construct: purchased Eurofins
T3 sequence (P36888 27-993): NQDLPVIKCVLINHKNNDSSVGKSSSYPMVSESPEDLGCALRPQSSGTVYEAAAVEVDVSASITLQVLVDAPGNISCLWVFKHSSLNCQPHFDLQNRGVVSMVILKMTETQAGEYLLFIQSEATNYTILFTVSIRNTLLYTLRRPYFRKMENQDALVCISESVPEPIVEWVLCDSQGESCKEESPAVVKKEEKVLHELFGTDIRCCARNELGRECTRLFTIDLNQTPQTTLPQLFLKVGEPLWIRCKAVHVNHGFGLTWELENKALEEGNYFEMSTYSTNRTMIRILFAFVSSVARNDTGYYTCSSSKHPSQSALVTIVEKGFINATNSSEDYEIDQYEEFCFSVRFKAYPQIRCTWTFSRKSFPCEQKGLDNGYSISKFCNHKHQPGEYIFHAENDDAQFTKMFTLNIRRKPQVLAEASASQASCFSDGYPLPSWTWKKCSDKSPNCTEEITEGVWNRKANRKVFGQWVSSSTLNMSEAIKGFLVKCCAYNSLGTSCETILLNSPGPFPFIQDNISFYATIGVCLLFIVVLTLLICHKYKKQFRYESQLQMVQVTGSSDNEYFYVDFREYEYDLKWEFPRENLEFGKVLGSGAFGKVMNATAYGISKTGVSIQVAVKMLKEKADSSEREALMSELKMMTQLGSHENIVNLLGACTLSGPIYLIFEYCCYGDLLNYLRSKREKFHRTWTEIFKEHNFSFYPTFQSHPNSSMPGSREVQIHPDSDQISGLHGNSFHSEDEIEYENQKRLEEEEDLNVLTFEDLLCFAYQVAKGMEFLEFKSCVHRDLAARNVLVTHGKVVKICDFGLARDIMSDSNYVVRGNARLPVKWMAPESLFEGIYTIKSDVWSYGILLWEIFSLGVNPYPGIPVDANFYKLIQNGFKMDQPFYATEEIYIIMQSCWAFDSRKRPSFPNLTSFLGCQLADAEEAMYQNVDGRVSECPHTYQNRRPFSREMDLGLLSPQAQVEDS
Protocol: as §1

Flt3 (D835Y) (h) = target: T4, Flt3 (D835Y) (h) (Homo sapiens, UniProt P36888, D835Y); assay: Radioisotope labeling kinase assay (Eurofins), Flt3 (D835Y); type: biochemical; conditions: 1 μM compound; read-out: Inhibitory activity per unit concentration/Activity % Flt3 (D835Y) (h)
T4 construct: purchased Eurofins
T4 sequence (P36888 27-993 D835Y): T3 sequence (P36888 27-993) with D809Y
Protocol: as §1

BTK (h) = target: T5, BTK (h) (Homo sapiens, UniProt Q06187); assay: Radioisotope labeling kinase assay (Eurofins), BTK; type: biochemical; conditions: 1 μM compound; read-out: Inhibitory activity per unit concentration/Activity % BTK (h)
T5 construct: purchased Eurofins
T5 sequence (Q06187 whole entry): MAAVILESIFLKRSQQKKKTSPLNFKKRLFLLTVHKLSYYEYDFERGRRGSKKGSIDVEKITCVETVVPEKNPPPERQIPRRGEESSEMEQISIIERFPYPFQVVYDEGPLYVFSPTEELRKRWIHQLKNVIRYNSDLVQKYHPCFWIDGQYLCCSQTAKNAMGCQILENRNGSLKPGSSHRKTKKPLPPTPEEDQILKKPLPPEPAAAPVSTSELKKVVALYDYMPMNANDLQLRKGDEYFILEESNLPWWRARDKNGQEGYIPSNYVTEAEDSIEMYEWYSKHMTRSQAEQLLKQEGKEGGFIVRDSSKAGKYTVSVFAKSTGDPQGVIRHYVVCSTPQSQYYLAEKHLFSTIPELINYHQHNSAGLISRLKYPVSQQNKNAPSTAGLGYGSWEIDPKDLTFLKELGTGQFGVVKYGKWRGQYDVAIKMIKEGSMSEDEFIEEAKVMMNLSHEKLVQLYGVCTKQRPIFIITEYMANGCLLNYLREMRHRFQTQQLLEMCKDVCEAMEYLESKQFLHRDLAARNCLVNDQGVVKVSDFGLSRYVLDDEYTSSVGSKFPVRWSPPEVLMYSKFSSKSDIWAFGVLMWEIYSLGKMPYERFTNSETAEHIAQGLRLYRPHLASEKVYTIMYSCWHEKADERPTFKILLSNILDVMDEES
Protocol: as §1

## CC(C)(C)OC(=O)Nc1cc2cc(c1)Nc1nccc(n1)-c1cccc(c1)COCC=CCOC2
[1]
  ring closure, yield of all isomers: 50%

## CN1C/C=C/COCc2cccc(c2)-c2ccnc(n2)Nc2cc(cc(NC(=O)/C=C/CN3CCCC3)c2)C1 [XVI-25]
Ab1 (h)
  activity at 1 µM: 35%
JAK3 (h)
  activity at 1 µM: 83%
Flt3 (h)
  activity at 1 µM: 6%
Flt3 (D835Y) (h)
  activity at 1 µM: 0%
BTK (h)
  activity at 1 µM: 64%

## CN1CCC(NC(=O)/C=C/COc2ccc3cc2Nc2nccc(n2)-c2cccc(c2)COC/C=C/COC3)C1 (stereo not shown) [XVI-24]
Ab1 (h)
  activity at 1 µM: 81%
JAK3 (h)
  activity at 1 µM: 88%
Flt3 (h)
  activity at 1 µM: 82%
Flt3 (D835Y) (h)
  activity at 1 µM: 50%
BTK (h)
  activity at 1 µM: 86%

## C1=C/COCc2cccc(c2)-c2ccnc(n2)Nc2cc(cc(OC/C=C/CN3CCOCC3)c2)COC/1 [XVI-16]
Ab1 (h)
  activity at 1 µM: 19%
JAK3 (h)
  activity at 1 µM: 32%
Flt3 (h)
  activity at 1 µM: 20%
Flt3 (D835Y) (h)
  activity at 1 µM: -1%
BTK (h)
  activity at 1 µM: 48%

## CCCC#CC(=O)Nc1cc2cc(c1)Nc1nccc(n1)-c1cccc(c1)COC/C=C/CN(C)C2 [XVII-4]
Ab1 (h)
  activity at 1 µM: 52%
JAK3 (h)
  activity at 1 µM: 83%
Flt3 (h)
  activity at 1 µM: 7%
Flt3 (D835Y) (h)
  activity at 1 µM: 3%
BTK (h)
  activity at 1 µM: 80%

## C=CC(=O)Nc1cc2cc(c1)Nc1nccc(n1)-c1cccc(c1)COC/C=C/CN(C)C2 [XVI-31]
Ab1 (h)
  activity at 1 µM: 50%
JAK3 (h)
  activity at 1 µM: 57%
Flt3 (h)
  activity at 1 µM: 7%
Flt3 (D835Y) (h)
  activity at 1 µM: 2%
BTK (h)
  activity at 1 µM: 86%

## C1=C/COCc2ccc(OC/C=C/CN3CCCC3)c(c2)Nc2nccc(n2)-c2cccc(c2)COC/1 [XVI-20]
Ab1 (h)
  activity at 1 µM: 85%
JAK3 (h)
  activity at 1 µM: 97%
Flt3 (h)
  activity at 1 µM: 91%
Flt3 (D835Y) (h)
  activity at 1 µM: 33%
BTK (h)
  activity at 1 µM: 90%

## CN1C/C=C/COCc2cccc(c2)-c2ccnc(n2)Nc2cc(cc(NC(=O)C#CCN3CCOCC3)c2)C1 [XVII-5]
Ab1 (h)
  activity at 1 µM: 45%
JAK3 (h)
  activity at 1 µM: 60%
Flt3 (h)
  activity at 1 µM: 4%
Flt3 (D835Y) (h)
  activity at 1 µM: 1%
BTK (h)
  activity at 1 µM: 72%

## O=C(/C=C/C(=O)N1CCCC1)Nc1cc2cc(c1)Nc1nccc(n1)-c1cccc(c1)COC/C=C/COC2 [XVI-33]
Ab1 (h)
  activity at 1 µM: 38%
JAK3 (h)
  activity at 1 µM: 17%
Flt3 (h)
  activity at 1 µM: 2%
Flt3 (D835Y) (h)
  activity at 1 µM: 10%
BTK (h)
  activity at 1 µM: 86%

## O=C(/C=C/CNC1CCOC1)Nc1cc2cc(c1)Nc1nccc(n1)-c1cccc(c1)COC/C=C/COC2 (stereo not shown) [XVI-15]
Ab1 (h)
  activity at 1 µM: 7%
JAK3 (h)
  activity at 1 µM: 6%
Flt3 (h)
  activity at 1 µM: 20%
Flt3 (D835Y) (h)
  activity at 1 µM: 6%
BTK (h)
  activity at 1 µM: 12%

## O=C(/C=C/c1cnc[nH]1)Nc1cc2cc(c1)Nc1nccc(n1)-c1cccc(c1)COC/C=C/COC2 [XVI-7]
Ab1 (h)
  activity at 1 µM: 17%
JAK3 (h)
  activity at 1 µM: 21%
Flt3 (h)
  activity at 1 µM: 7%
Flt3 (D835Y) (h)
  activity at 1 µM: -1%
BTK (h)
  activity at 1 µM: 45%

## O=C(/C=C/CNC1CCOC1)Nc1cc2cc(c1)Nc1nccc(n1)-c1cccc(c1)CCC/C=C/COC2 (stereo not shown) [XVI-19]
Ab1 (h)
  activity at 1 µM: 2%
JAK3 (h)
  activity at 1 µM: 6%
Flt3 (h)
  activity at 1 µM: 23%
Flt3 (D835Y) (h)
  activity at 1 µM: -3%
BTK (h)
  activity at 1 µM: 17%

## N#Cc1ccc(/C=C/C(=O)Nc2cc3cc(c2)Nc2nccc(n2)-c2cccc(c2)COC/C=C/COC3)cc1 [XVI-2]
Ab1 (h)
  activity at 1 µM: 42%
JAK3 (h)
  activity at 1 µM: 56%
Flt3 (h)
  activity at 1 µM: 12%
Flt3 (D835Y) (h)
  activity at 1 µM: 3%
BTK (h)
  activity at 1 µM: 61%
